Data set [1] is described as follows: Cytotoxicity against human MRC5 cells assessed as inhibition of cell viability incubated for 72 hrs by MTT assay. The format is toxicity, cell-based. A general note: Tetrazolium assays rely on reduction of a dye to a coloured formazan, in cell work by metabolically active cells.
For data set [2], the system named is HepG2. As to the kind of experiment: Anticancer activity against human HepG2 cells assessed as inhibition of cell viability incubated for 72 hrs by MTT assay. To be noted: HepG2, 72 h. The data set is classed as functional, cell-based.
The nature of data set [3]: Selectivity index, ratio of IC50 for cytotoxicity against human MRC5 cells to IC50 for anticancer activity against human HepG2 cells. The format is toxicity, cell-based. The following applies: MRC5 cells versus HepG2 cells, read-out: Ratio IC50.
For data set [4], the system named is HepG2. As to the kind of experiment: Potency index, ratio of Sorafenib IC50 to test compound IC50 for anticancer activity against human HepG2 cells assessed as inhibition of cell viability incubated for 72 hrs by MTT assay. The format is functional.
Data set [5] deals with HepG2. As to the kind of experiment: Induction of apoptosis in human HepG2 cells at 5 uM incubated for 72 hrs by Annexin V-FITC/PI staining based flow cytometry. The data set is classed as functional, cell-based. In general terms: Flow cytometry measures light scatter and fluorescence of single cells or particles in a stream.

The values that follow come from ChEMBL document CHEMBL5214985, “meta-Ureidophenoxy-1,2,3-triazole hybrid as a novel scaffold for promising HepG2 hepatocellular carcinoma inhibitors: Synthesis, biological evaluation and molecular docking studies” (Bioorg Med Chem, 2022).

The source made the active and inactive calls. No cut-off for these calls is given here.

As for `O=C(Nc1cccc(OCc2cn(-c3ccc(F)cc3)nn2)c1)Nc1ccc(Cl)c(C(F)(F)F)c1`, the IC50 (commonly the midpoint of a concentration-inhibition curve) at 72 h in data set [1] is 4.74 µM. For the same compound, the IC50 in data set [2] is 1.35 µM. Further, the selectivity ratio in data set [3] was found to be 3.52.

Turning to `CC(C)c1ccc(-n2cc(COc3cccc(NC(=O)Nc4ccc(Cl)c(C(F)(F)F)c4)c3)nn2)cc1`, in data set [2], the IC50 was 2.47 µM.

Consider `CCc1cccc(-n2cc(COc3cccc(NC(=O)Nc4ccc(Cl)c(C(F)(F)F)c4)c3)nn2)c1`, for which the IC50 in data set [2] was determined as 37.9 µM.

`N#Cc1ccc(-n2cc(COc3cccc(NC(=O)Nc4ccc(Cl)c(C(F)(F)F)c4)c3)nn2)cc1`: the IC50 in data set [2] is 2.98 µM.

Take `CC(C)c1ccccc1-n1cc(COc2cccc(NC(=O)Nc3ccc(Cl)c(C(F)(F)F)c3)c2)nn1`: the IC50 in data set [2] came to 1.9 µM.

As to `N#Cc1cccc(-n2cc(COc3cccc(NC(=O)Nc4ccc(Cl)c(C(F)(F)F)c4)c3)nn2)c1`, the IC50 at 72 h in data set [1] was determined as 2.96 µM. Further, in data set [2], the IC50 is 2.76 µM. Besides, the selectivity ratio in data set [3] stood at 1.07.

For `O=C(Nc1cccc(OCc2cn(-c3ccc(Cl)cc3)nn2)c1)Nc1ccc(Cl)c(C(F)(F)F)c1`, in data set [2], the IC50 came to 2.49 µM.

Take `O=C(Nc1cccc(OCc2cn(-c3ccccc3Cl)nn2)c1)Nc1ccc(Cl)c(C(F)(F)F)c1`: in data set [2], the IC50 was 1.96 µM.

Turning to `N#Cc1ccccc1-n1cc(COc2cccc(NC(=O)Nc3ccc(Cl)c(C(F)(F)F)c3)c2)nn1`, the IC50 at 72 h in data set [1] was determined as 17.5 µM. Also, the IC50 in data set [2] was 1.97 µM. The selectivity ratio in data set [3] is 8.89.

Regarding `O=C(Nc1cccc(OCc2cn(-c3ccccc3)nn2)c1)Nc1ccc(Cl)c(C(F)(F)F)c1`, in data set [4], the “Ratio IC50” value was determined as 2.8. For the same compound, the IC50 at 72 h in data set [1] is 18.4 µM. Also, in data set [2], the IC50 was determined as 1.78 µM. Moreover, the selectivity ratio in data set [3] is 10.3.

Regarding `O=C(Nc1cccc(OCc2cn(-c3ccccc3Br)nn2)c1)Nc1ccc(Cl)c(C(F)(F)F)c1`, the IC50 in data set [2] came out at 2.81 µM.

In the case of `Cc1cccc(-n2cc(COc3cccc(NC(=O)Nc4ccc(Cl)c(C(F)(F)F)c4)c3)nn2)c1`, in data set [2], the IC50 came to 7.27 µM.

Regarding `O=C(Nc1cccc(OCc2cn(-c3cccc(Br)c3)nn2)c1)Nc1ccc(Cl)c(C(F)(F)F)c1`, the “Ratio IC50” value in data set [4] was determined as 5. In addition, in data set [5], the outcome was Active. Besides, in data set [1], the IC50 at 72 h turned out to be 11.9 µM. Besides, in data set [2], the IC50 is 1.04 µM. Moreover, the selectivity ratio in data set [3] stood at 11.5.

As to `CCc1ccccc1-n1cc(COc2cccc(NC(=O)Nc3ccc(Cl)c(C(F)(F)F)c3)c2)nn1`, the IC50 in data set [2] worked out at 3.53 µM.

As for `CCc1ccc(-n2cc(COc3cccc(NC(=O)Nc4ccc(Cl)c(C(F)(F)F)c4)c3)nn2)cc1`, the IC50 in data set [2] was 1.95 µM.

Consider `O=C(Nc1cccc(OCc2cn(-c3cccc(C(F)(F)F)c3)nn2)c1)Nc1ccc(Cl)c(C(F)(F)F)c1`, for which, in data set [2], the IC50 was determined as 1.27 µM.

For `O=C(Nc1cccc(OCc2cn(-c3cccc(F)c3)nn2)c1)Nc1ccc(Cl)c(C(F)(F)F)c1`, in data set [2], the IC50 turned out to be 2.12 µM.

For the compound `O=C(Nc1cccc(OCc2cn(-c3cccc(Cl)c3)nn2)c1)Nc1ccc(Cl)c(C(F)(F)F)c1`, in data set [2], the IC50 amounted to 2.02 µM.

Take `CC(C)c1cccc(-n2cc(COc3cccc(NC(=O)Nc4ccc(Cl)c(C(F)(F)F)c4)c3)nn2)c1`: in data set [1], the IC50 at 72 h stood at 21.4 µM. In addition, in data set [2], the IC50 is 3.25 µM. Moreover, the selectivity ratio in data set [3] came to 6.58.

Take `COc1ccccc1-n1cc(COc2cccc(NC(=O)Nc3ccc(Cl)c(C(F)(F)F)c3)c2)nn1`: in data set [2], the IC50 was found to be 11.3 µM.

For the compound `O=C(Nc1cccc(OCc2cn(-c3ccccc3F)nn2)c1)Nc1ccc(Cl)c(C(F)(F)F)c1`, in data set [2], the IC50 turned out to be 1.52 µM.

As for `COc1ccc(-n2cc(COc3cccc(NC(=O)Nc4ccc(Cl)c(C(F)(F)F)c4)c3)nn2)cc1`, the IC50 in data set [2] stood at 4.68 µM.

Take `O=C(Nc1cccc(OCc2cn(-c3ccc(I)cc3)nn2)c1)Nc1ccc(Cl)c(C(F)(F)F)c1`: the half-maximal inhibitory concentration (IC50) at 72 h in data set [1] was determined as 6.84 µM. Also, the IC50 in data set [2] turned out to be 2.69 µM. For the same compound, the selectivity ratio in data set [3] stood at 2.55.

For the compound `Cc1ccc(-n2cc(COc3cccc(NC(=O)Nc4ccc(Cl)c(C(F)(F)F)c4)c3)nn2)cc1`, the IC50 in data set [2] was found to be 5.43 µM.

As for `O=C(Nc1cccc(OCc2cn(-c3ccc(C(F)(F)F)cc3)nn2)c1)Nc1ccc(Cl)c(C(F)(F)F)c1`, the concentration for half-maximal inhibition (IC50) in data set [2] is 1.8 µM.

Regarding `O=C(Nc1cccc(OCc2cn(-c3ccc(Br)cc3)nn2)c1)Nc1ccc(Cl)c(C(F)(F)F)c1`, in data set [1], the IC50 at 72 h is 11 µM. Besides, the IC50 in data set [2] amounted to 2.73 µM. Further, the selectivity ratio in data set [3] turned out to be 4.03.

In the case of `CNC(=O)c1cc(Oc2ccc(NC(=O)Nc3ccc(Cl)c(C(F)(F)F)c3)cc2)ccn1` [SORAFENIB], the outcome in data set [5] was Active. The IC50 at 72 h in data set [1] worked out at 11.1 µM.

With `O=C(Nc1cccc(OCc2cn(-c3ccccc3I)nn2)c1)Nc1ccc(Cl)c(C(F)(F)F)c1`, in data set [1], the IC50 at 72 h came to 21.9 µM. Further, the IC50 in data set [2] came to 2.87 µM. The selectivity ratio in data set [3] was found to be 7.61.

On to `COc1cccc(-n2cc(COc3cccc(NC(=O)Nc4ccc(Cl)c(C(F)(F)F)c4)c3)nn2)c1`, for which the IC50 at 72 h in data set [1] was 8.57 µM. In data set [2], the IC50 amounted to 1.31 µM. Further, the selectivity ratio in data set [3] turned out to be 6.55.

`O=C(Nc1cccc(OCc2cn(-c3cccc(I)c3)nn2)c1)Nc1ccc(Cl)c(C(F)(F)F)c1`: the IC50 in data set [2] stood at 4.78 µM.

With `O=C(Nc1cccc(OCc2cn(-c3ccccc3C(F)(F)F)nn2)c1)Nc1ccc(Cl)c(C(F)(F)F)c1`, the IC50 at 72 h in data set [1] came to 8.23 µM. Further, the IC50 in data set [2] is 2.32 µM. Further, the selectivity ratio in data set [3] worked out at 3.55.

Regarding `Cc1ccccc1-n1cc(COc2cccc(NC(=O)Nc3ccc(Cl)c(C(F)(F)F)c3)c2)nn1`, the IC50 in data set [2] turned out to be 3.44 µM.
